Data published in ChEMBL document CHEMBL3885861, “Open TG-GATES”.

Species: Rattus norvegicus
Test: Open TG-GATES - Regimen: Daily Repeat
Type: toxicity, organism-based, Sprague-Dawley
Parameters: regimen Daily Repeat, gender Male, age 6 weeks
Details: in vivo, po, 1000 mg/kg, route gavage, dose level High; for APTT / Bas / Eos / Fbg / Hb / Ht / Lym / MCH / MCHC / MCV / Mono / Neu / PT / Plat / RBC / Ret / WBC: tissue Blood; for KIDNEY_L / KIDNEY_R / KIDNEY_TOTAL: tissue Kidney; for LIVER: tissue Liver; for A/G / ALP / ALT / AST / BUN / CRE / Ca / Cl / DBIL / GLC / IP / K / LDH / Na / PL / RALB / TBIL / TC / TG / TP / gamma-GTP: tissue Plasma

Compound: CCCCNC(=O)NS(=O)(=O)c1ccc(C)cc1 [TOLBUTAMIDE]
- TERMINAL_BW (72 h, time 3 day): 225.8 g
- APTT (72 h, time 3 day): 17.7 s
- Bas (72 h, time 3 day): 0%
- Eos (72 h, time 3 day): 1%
- Fbg (72 h, time 3 day): 301.6 mg/dL
- Hb (72 h, time 3 day): 13.7 g/dL
- Ht (72 h, time 3 day): 41.6%
- Lym (72 h, time 3 day): 81%
- MCH (72 h, time 3 day): 21.2 pg
- MCHC (72 h, time 3 day): 33%
- MCV (72 h, time 3 day): 64.2 fL
- Mono (72 h, time 3 day): 2.2%
- Neu (72 h, time 3 day): 15.2%
- PT (72 h, time 3 day): 12.8 s
- Plat (72 h, time 3 day): 129.6 x10_4/uL
- RBC (72 h, time 3 day): 647.4 x10_4/ul
- Ret (72 h, time 3 day): 4.2%
- WBC (72 h, time 3 day): 89.2 x10_2/uL
- KIDNEY_L (72 h, time 3 day): 1 g
- KIDNEY_R (72 h, time 3 day): 1 g
- KIDNEY_TOTAL (72 h, time 3 day): 2.1 g
- LIVER (72 h, time 3 day): 11.5 g
- A/G (72 h, time 3 day): 0.9
- ALP (72 h, time 3 day): 1487 IU/L
- ALT (72 h, time 3 day): 40.8 IU/L
- AST (72 h, time 3 day): 69.6 IU/L
- BUN (72 h, time 3 day): 12.8 mg/dL
- CRE (72 h, time 3 day): 0.2 mg/dL
- Ca (72 h, time 3 day): 11 mg/dL
- Cl (72 h, time 3 day): 105.2 meq/L
- DBIL (72 h, time 3 day): 0.004 mg/dL
- GLC (72 h, time 3 day): 172 mg/dL
- IP (72 h, time 3 day): 7.9 mg/dL
- K (72 h, time 3 day): 3.9 meq/L
- LDH (72 h, time 3 day): 75.6 IU/L
- Na (72 h, time 3 day): 142.4 meq/L
- PL (72 h, time 3 day): 144 mg/dL
- RALB (72 h, time 3 day): 2.6 g/dL
- TBIL (72 h, time 3 day): 0.06 mg/dL
- TC (72 h, time 3 day): 76.8 mg/dL
- TG (72 h, time 3 day): 68 mg/dL
- TP (72 h, time 3 day): 5.5 g/dL
- gamma-GTP (72 h, time 3 day): 1 IU/L
- TERMINAL_BW ([…], time 7 day): 255.2 g
- TERMINAL_BW ([…], time 14 day): 306.7 g
- TERMINAL_BW ([…], time 28 day): 411.9 g
- APTT ([…], time 7 day): 18.1 s
- Bas ([…], time 7 day): 0.4%
- Eos ([…], time 7 day): 0.6%
- Fbg ([…], time 7 day): 267.4 mg/dL
- Hb ([…], time 7 day): 13.7 g/dL
- Ht ([…], time 7 day): 41.4%
- Lym ([…], time 7 day): 80%
- MCH ([…], time 7 day): 20.5 pg
- MCHC ([…], time 7 day): 33.1%
- MCV ([…], time 7 day): 61.9 fL
- Mono ([…], time 7 day): 2.4%
- Neu ([…], time 7 day): 16.2%
- PT ([…], time 7 day): 12.9 s
- Plat ([…], time 7 day): 112 x10_4/uL
- RBC ([…], time 7 day): 669.6 x10_4/ul
- Ret ([…], time 7 day): 5.3%
- WBC ([…], time 7 day): 138.8 x10_2/uL
- APTT ([…], time 14 day): 19.2 s
- Bas ([…], time 14 day): 0.4%
- Eos ([…], time 14 day): 0.8%
- Fbg ([…], time 14 day): 320 mg/dL
- Hb ([…], time 14 day): 14.3 g/dL
- Ht ([…], time 14 day): 43.7%
- Lym ([…], time 14 day): 82.8%
- MCH ([…], time 14 day): 19.3 pg
- MCHC ([…], time 14 day): 32.7%
- MCV ([…], time 14 day): 59.1 fL
- Mono ([…], time 14 day): 1.8%
- Neu ([…], time 14 day): 13.8%
- PT ([…], time 14 day): 12.5 s
- Plat ([…], time 14 day): 127.9 x10_4/uL
- RBC ([…], time 14 day): 740 x10_4/ul
- Ret ([…], time 14 day): 4.3%
- WBC ([…], time 14 day): 116.4 x10_2/uL
- APTT ([…], time 28 day): 25 s
- Bas ([…], time 28 day): 0.2%
- Eos ([…], time 28 day): 1%
- Fbg ([…], time 28 day): 269.5 mg/dL
- Hb ([…], time 28 day): 15 g/dL
- Ht ([…], time 28 day): 45%
- Lym ([…], time 28 day): 84.5%
- MCH ([…], time 28 day): 18.6 pg
- MCHC ([…], time 28 day): 33.5%
- MCV ([…], time 28 day): 55.6 fL
- Mono ([…], time 28 day): 2%
- Neu ([…], time 28 day): 11.2%
- PT ([…], time 28 day): 13.5 s
- Plat ([…], time 28 day): 102.5 x10_4/uL
- RBC ([…], time 28 day): 808.8 x10_4/ul
- Ret ([…], time 28 day): 2.1%
- WBC ([…], time 28 day): 118.3 x10_2/uL
- KIDNEY_L ([…], time 7 day): 1.1 g
- KIDNEY_R ([…], time 7 day): 1.1 g
- KIDNEY_TOTAL ([…], time 7 day): 2.2 g
- KIDNEY_L ([…], time 14 day): 1.2 g
- KIDNEY_R ([…], time 14 day): 1.2 g
- KIDNEY_TOTAL ([…], time 14 day): 2.4 g
- KIDNEY_L ([…], time 28 day): 1.4 g
- KIDNEY_R ([…], time 28 day): 1.3 g
- KIDNEY_TOTAL ([…], time 28 day): 2.7 g
- LIVER ([…], time 7 day): 12.3 g
- LIVER ([…], time 14 day): 15 g
- LIVER ([…], time 28 day): 18.7 g
- A/G ([…], time 7 day): 0.9
- ALP ([…], time 7 day): 1609.6 IU/L
- ALT ([…], time 7 day): 48.6 IU/L
- AST ([…], time 7 day): 71.4 IU/L
- BUN ([…], time 7 day): 14.8 mg/dL
- CRE ([…], time 7 day): 0.2 mg/dL
- Ca ([…], time 7 day): 10.7 mg/dL
- Cl ([…], time 7 day): 104 meq/L
- DBIL ([…], time 7 day): 0.008 mg/dL
- GLC ([…], time 7 day): 189.6 mg/dL
- IP ([…], time 7 day): 7.7 mg/dL
- K ([…], time 7 day): 4 meq/L
- LDH ([…], time 7 day): 55.8 IU/L
- Na ([…], time 7 day): 141.8 meq/L
- PL ([…], time 7 day): 151.8 mg/dL
- RALB ([…], time 7 day): 2.5 g/dL
- TBIL ([…], time 7 day): 0.052 mg/dL
- TC ([…], time 7 day): 74.2 mg/dL
- TG ([…], time 7 day): 94.2 mg/dL
- TP ([…], time 7 day): 5.4 g/dL
- gamma-GTP ([…], time 7 day): 0.8 IU/L
- A/G ([…], time 14 day): 0.9
- ALP ([…], time 14 day): 1494.8 IU/L
- ALT ([…], time 14 day): 42.4 IU/L
- AST ([…], time 14 day): 63.4 IU/L
- BUN ([…], time 14 day): 15 mg/dL
- CRE ([…], time 14 day): 0.2 mg/dL
- Ca ([…], time 14 day): 10.9 mg/dL
- Cl ([…], time 14 day): 104.6 meq/L
- DBIL ([…], time 14 day): 0.01 mg/dL
- GLC ([…], time 14 day): 192.6 mg/dL
- IP ([…], time 14 day): 6.8 mg/dL
- K ([…], time 14 day): 3.8 meq/L
- LDH ([…], time 14 day): 49.4 IU/L
- Na ([…], time 14 day): 142.4 meq/L
- PL ([…], time 14 day): 157.2 mg/dL
- RALB ([…], time 14 day): 2.7 g/dL
- TBIL ([…], time 14 day): 0.056 mg/dL
- TC ([…], time 14 day): 72 mg/dL
- TG ([…], time 14 day): 136.8 mg/dL
- TP ([…], time 14 day): 5.9 g/dL
- gamma-GTP ([…], time 14 day): 1 IU/L
- A/G ([…], time 28 day): 0.8
- ALP ([…], time 28 day): 1194 IU/L
- ALT ([…], time 28 day): 36.5 IU/L
- AST ([…], time 28 day): 59 IU/L
- BUN ([…], time 28 day): 17.2 mg/dL
- CRE ([…], time 28 day): 0.3 mg/dL
- Ca ([…], time 28 day): 10.8 mg/dL
- Cl ([…], time 28 day): 105.2 meq/L
- DBIL ([…], time 28 day): 0.01 mg/dL
- GLC ([…], time 28 day): 203.2 mg/dL
- IP ([…], time 28 day): 6.5 mg/dL
- K ([…], time 28 day): 3.7 meq/L
- LDH ([…], time 28 day): 53.5 IU/L
- Na ([…], time 28 day): 143.2 meq/L
- PL ([…], time 28 day): 132 mg/dL
- RALB ([…], time 28 day): 2.7 g/dL
- TBIL ([…], time 28 day): 0.05 mg/dL
- TC ([…], time 28 day): 58.2 mg/dL
- TG ([…], time 28 day): 111.5 mg/dL
- TP ([…], time 28 day): 6 g/dL
- gamma-GTP ([…], time 28 day): 1 IU/L
